Data published in patent publication US4525347A, “Antiinflammatory analgesic gelled ointment” (Kowa Company Limited, priority 1983, dated 1985).
Like-named read-outs stand apart in the source and are kept apart here.

Tests used:
[1] = Skin absorption of indomethacin suspended in conventional ointment bases; assay type: in vivo, human beings; settings: topical
[2] = Topical administration of indomethacin: activity and adverse reactions; assay type: in vivo; settings: administered topically
[3] = Effect of pH of the ointment on indomethacin (crystallization, decomposition); assay type: physicochemical
[4] = cited from earlier work
[5] = Effect of adjuvant on skin absorption of indomethacin; assay type: in vivo; settings: combination with an adjuvant
[6] = in water and common media; cited from earlier work

Compound: COc1ccc2c(c1)c(CC(=O)O)c(C)n2C(=O)c1ccc(Cl)cc1 [indomethacin, Indomethacin]
- absorption by the skin [1]: remain unabsorbed by the skin of human beings
- adverse reactions attributable to the administration of indomethacin [2]: completely eliminated
- antiinflammatory analgesic activity, topical vs internal use [2]: to the same extent as attained by its internal use
- decomposition of indomethacin ([3]; pH level above 7.5): decomposed indomethacin
- crystallization during the ointment preparation ([3]; pH level below 4.8): crystallization of indomethacin
- adverse effects ([4]; oral use): gastroenteric disorders
- adverse effects ([4]; suppository form, patient suffering from peptic ulcer): decreased appetite, nausea, vomiting, stomach ache, diarrhea and loose passage
- absorption of indomethacin by the skin [5]: substantially increased
- solubility [6]: only slightly soluble
